In patent US20070207331A1, “Azo compounds and coating compositions containing the azo compounds” (priority 2006, published 2007):

Assay: solubility of the reactive azo compounds in toluene (weight percent solubility)
Format: physicochemical
Settings: for solubility in toluene relative to compounds of similar structure (in words): comparison of methyl ester comparative compounds with the yellow azo compounds of the invention; for WPS (weight percent solubility in toluene): heated to boil, cooled to room temperature, filtered (0.45 μm), dry residue mass / filtrate mass
Method: The solubilites of the reactive azo compounds of Examples 1, 2, 3 and 4 and Comparative Examples 1, 2 and 3 (C-1, C-2 and C-3) in toluene were determined according to the following procedures: A sample (0.2 g) of each compound was added to a screw top vial followed by the addition of toluene (0.5 mL for each vial containing the reactive azo compound of Examples 1, 3, 4 or C-3; 1.0 mL for Examples 2 or C-1; 1.5 mL for Example C-2. Each vial was capped and heated until the solution or mixture began to boil. Each solution or mixture then was allowed to cool to room temperature. Various amounts of toluene were required to give a filterable solution or suspension upon cooling. The solutions or suspensions of the azo compounds were filtered (0.45 μm nylon membrane with glass microfiber prefilter, Autovial®, Whatman Inc.) to give homogenous solutions (filtrates). Each filtered solution was weighed and the toluene solvent was removed under reduced pressure to give the mass of dry residue of each azo compound dissolved in the toluene solvent. The weight percent solubility of each azo compound is defined as [formula]
wherein WPS is the weight percent solubility for each azo compound in toluene and Dry Azo Compound Residue and Toluene Solution Filtrate are produced as described above. The results of the toluene solubility evaluations are shown in Table II wherein Azo compound refers to the example in which the reactive azo compound and its preparation is described.

| SMILES | solubility in toluene relative to compounds of similar structure (in words) | WPS (weight percent solubility in toluene) [weight percent] |
| --- | --- | --- |
| C=C(C)C(=O)OCCn1c(O)c(/N=N/c2ccccc2C(=O)OC)c(C)c(C#N)c1=O [Example C-3] | much lower | 11.1 |
| C=C(C)C(=O)OCCn1c(O)c(/N=N/c2ccccc2C(=O)OCC(C)C)c(C)c(C#N)c1=O [Example 2] | – | 18.6 |
| C=C(C)c1cccc(C(C)(C)NC(=O)OCCn2c(O)c(/N=N/c3ccc(C(=O)OC)cc3)c(C)c(C#N)c2=O)c1 [Example C-1] | much lower | 8.8 |
| C=C(C)C(=O)OCCn1c(O)c(/N=N/c2ccccc2C(=O)OCC(CC)CCCC)c(C)c(C#N)c1=O (stereo not shown) [Example 3] | – | 33.3 |
| C=C(C)C(=O)OCCn1c(O)c(/N=N/c2ccccc2C(=O)OCCOCC)c(C)c(C#N)c1=O [Example 4] | – | 35.5 |

The next lines start with the values.

| solubility in toluene relative to compounds of similar structure (in words) | WPS (weight percent solubility in toluene) [weight percent] | SMILES |
| --- | --- | --- |
| much lower | 2.3 | C=C(C)c1cccc(C(C)(C)NC(=O)OCCn2c(O)c(/N=N/c3ccccc3C(=O)OC)c(C)c(C#N)c2=O)c1 [Example C-2] |
| – | 37.5 | C=C(C)c1cccc(C(C)(C)NC(=O)OCCn2c(O)c(/N=N/c3ccccc3C(=O)OCC(CC)CCCC)c(C)c(C#N)c2=O)c1 (stereo not shown) [Example 1] |
